In brackets after ≈: the same amount, converted by molar mass. Like-named read-outs stand apart in the source and are kept apart here.
Tests used:
E. cloacae IPM-12 = test: In vitro antibacterial MIC; format: cell-based; details: Enterobacter cloacae, IPM12, 18 h, pH 7
Description: (§1) The minimum inhibitory concentration (MIC) was determined by a two-fold serial tube dilution method using nutrient agar (pH7, Difco containing 10^5 cfu/ml).

E. coli 255 = test: In vitro antibacterial MIC; format: cell-based; details: Escherichia coli, 255, 18 h, pH 7
Description: as §1

E. coli Juhl A15119 = test: In vitro antibacterial MIC; format: cell-based; details: Escherichia coli, JUHLA15119, 18 h, pH 7
Description: as §1

E. faecalis A9808 = test: In vitro antibacterial MIC; format: cell-based; details: Enterococcus faecalis, A9808, 18 h, pH 7
Description: as §1

E. faecium A24817 = test: In vitro antibacterial MIC; format: cell-based; details: Enterococcus faecium, pH 7, nutrient agar pH7, 32° C., 18 hours
Description: as §1

K. pneumoniae PCI 602 = test: In vitro antibacterial MIC; format: cell-based; details: Klebsiella pneumoniae, PCI602, 18 h, pH 7
Description: as §1

M. luteus PCI 1001 = test: In vitro antibacterial MIC; format: cell-based; details: Micrococcus luteus, PCI1001, pH 7, nutrient agar pH7, 32° C., 18 hours
Description: as §1

M. morganii I510 = test: In vitro antibacterial MIC; format: cell-based; details: Morganella morganii, I510, 18 h, pH 7
Description: as §1

P. aeruginosa A20599 = test: In vitro antibacterial MIC; format: cell-based; details: Pseudomonas aeruginosa, A20599, 18 h, pH 7
Description: as §1

P. aeruginosa A9843A = test: In vitro antibacterial MIC; format: cell-based; details: Pseudomonas aeruginosa, 18 h, pH 7
Description: as §1

P. aeruginosa IPM-8 = test: In vitro antibacterial MIC; format: cell-based; details: Pseudomonas aeruginosa, IPM8, 18 h, pH 7
Description: as §1

P. aeruginosa IPM-9 = test: In vitro antibacterial MIC; format: cell-based; details: Pseudomonas aeruginosa, IPM9, 18 h, pH 7
Description: as §1

P. aeruginosa KKA19 = test: In vitro antibacterial MIC; format: cell-based; details: Pseudomonas aeruginosa, pH 7, nutrient agar pH7, 32° C., 18 hours
Description: as §1

P. cepecia A21213 = test: In vitro antibacterial MIC; format: cell-based; details: 18 h, pH 7
Description: as §1

P. cepecia No. 651 = test: In vitro antibacterial MIC; format: cell-based; details: 18 h, pH 7
Description: as §1

P. mirabilis IFO 3849 = test: In vitro antibacterial MIC; format: cell-based; details: Proteus mirabilis, IFO3849, 18 h, pH 7
Description: as §1

P. rettgeri IPM-14 = test: In vitro antibacterial MIC; format: cell-based; details: Providencia rettgeri, IPM14, 18 h, pH 7
Description: as §1

P. vulgaris IPM-13 = test: In vitro antibacterial MIC; format: cell-based; details: Proteus vulgaris, IPM13, 18 h, pH 7
Description: as §1

S. aureus A15036 (MRSA) = test: In vitro antibacterial MIC; format: cell-based; details: Staphylococcus aureus, 18 h, pH 7
Description: as §1

S. aureus IPM-24 (MRSA) = test: In vitro antibacterial MIC; format: cell-based; details: Staphylococcus aureus, 18 h, pH 7
Description: as §1

S. aureus smith = test: In vitro antibacterial MIC; format: cell-based; details: Staphylococcus aureus, 18 h, pH 7
Description: as §1

S. epidermidis 11-1230 = test: In vitro antibacterial MIC; format: cell-based; details: Staphylococcus epidermidis, 111230, 18 h, pH 7
Description: as §1

S. marcescens IPM-15 = test: In vitro antibacterial MIC; format: cell-based; details: Serratia marcescens, IPM15, 18 h, pH 7
Description: as §1

S. marcescens IPM-16 = test: In vitro antibacterial MIC; format: cell-based; details: Serratia marcescens, IPM16, 18 h, pH 7
Description: as §1

X. maltophilia GN12873 = test: In vitro antibacterial MIC; format: cell-based; details: Stenotrophomonas maltophilia, pH 7, nutrient agar pH7, 32° C., 18 hours
Description: as §1

X. maltophilia No. 661 = test: In vitro antibacterial MIC; format: cell-based; details: Stenotrophomonas maltophilia, pH 7, nutrient agar pH7, 32° C., 18 hours
Description: as §1

[1] = system: Candida albicans ATCC 38247; test: In vitro antifungal MIC; format: cell-based
Description: (§2) The antifungal MICs of dynemicin C and its triacetate were determined by an agar dilution method on yeast morphology agar adjusted to pH7.0 with 1/15M phosphate buffer. A 5 μl aliquot of fungal suspension containing 10^6 cells/ml was inoculated onto the surface of the antibiotic-containing agar plates with a multiinoculator.

[2] = system: Cryptococcus neoformans D49; test: In vitro antifungal MIC; format: cell-based; details: for MIC: pH 7
Description: as §2

C. neoformans IAM4514 = test: In vitro antifungal MIC; format: cell-based, Cryptococcus neoformans
Description: as §2

[3] = system: B16-F10 (murine melanoma) cells; test: In vitro cytotoxicity; format: cell-based; details: Mus musculus, 72 hours, 37° C., neutral red, 540 nm
Description: (§3) Dynemicin C and its triacetate derivative were tested for in vitro cytotoxicity against murine and human tumor cell lines. Dynemicin A and its triacetate derivative were used as reference compounds. B16-F10 (murine melanoma) cells were grown to the logarithmic phase in enriched Eagle minimum essential medium (MEM) supplemented with fetal calf serum (FCS, 10%) and kanamycin (60 mcg/ml) and HCT-116 (human colon carcinoma) cells in Maccoy's 5A medium supplemented with FCS (10%), penicillin (100 μ/ml) and streptomycin (100 mcg/ml), and were harvested and inoculated into wells of the 96- or 24-well tissue culture plate with test materials at concentrations of 1.5×10^4, 1.3×10^4, 1.3×10^4, 2.5×10^4 and 3.0×10^4 cells/ml., respectively. They were incubated at 37° C. in a humidified atmosphere of 5% CO2 and 95% air for 72 hours. The cytotoxic activities were determined colorimetrically at 540 nm after staining viable cells with 0.006% neutral red solution.

[4] = system: HCT-116 (human colon carcinoma) cells; test: In vitro cytotoxicity; format: cell-based; details: 72 hours, 37° C., neutral red, 540 nm
Description: as §3

gram-positive organisms = test: In vitro antibacterial activity, gram-positive organisms as a group; format: cell-based
Description: as §1

gram-negative organisms = test: In vitro antibacterial activity, gram-negative organisms as a group; format: cell-based; details: 18 h, read-out: MIC (range)
Description: as §1

Solubility = format: physicochemical; details: solvent not stated
[5] = Candida albicans, ATCC38247, 40 h, pH 7
[6] = Cryptococcus neoformans, D49, 40 h

| SMILES | MIC (E. cloacae IPM-12) [ng/mL] | MIC (E. coli 255) [ng/mL] | MIC (E. coli Juhl A15119) [ng/mL] | MIC (E. faecalis A9808) [ng/mL] | MIC (E. faecium A24817) [ng/mL] | MIC (K. pneumoniae PCI 602) [ng/mL] | MIC (M. luteus PCI 1001) [ng/mL] | MIC (M. morganii I510) [ng/mL] | MIC (P. aeruginosa A20599) [ng/mL] | MIC (P. aeruginosa A9843A) [ng/mL] | MIC (P. aeruginosa IPM-8) [ng/mL] | MIC (P. aeruginosa IPM-9) [ng/mL] | MIC (P. aeruginosa KKA19) [ng/mL] | MIC (P. cepecia A21213) [ng/mL] | MIC (P. cepecia No. 651) [ng/mL] | MIC (P. mirabilis IFO 3849) [ng/mL] | MIC (P. rettgeri IPM-14) [ng/mL] | MIC (P. vulgaris IPM-13) [ng/mL] | MIC (S. aureus A15036 (MRSA)) [ng/mL] | MIC (S. aureus IPM-24 (MRSA)) [ng/mL] | also measured |
| --- | --- | --- | --- | --- | --- | --- | --- | --- | --- | --- | --- | --- | --- | --- | --- | --- | --- | --- | --- | --- | --- |
| COC1=C(C(=O)O)C(C)C23OC24c2cc(O)c5c(c2NC3C#CC=CC#CC14)C(=O)c1c(O)ccc(O)c1C5=O (centres unmarked) [Dynemicin A, reference compound] | 1.6 (≈ 2.98 nM) | 3.2 (≈ 5.95 nM) | 3.2 (≈ 5.95 nM) | < 0.025 | < 0.025 | 3.2 (≈ 5.95 nM) | < 0.025 | 0.8 (≈ 1.49 nM) | 3.2 (≈ 5.95 nM) | 1.6 (≈ 2.98 nM) | 3.2 (≈ 5.95 nM) | 6.3 (≈ 11.7 nM) | 3.2 (≈ 5.95 nM) | 0.8 (≈ 1.49 nM) | 0.8 (≈ 1.49 nM) | 1.6 (≈ 2.98 nM) | 0.8 (≈ 1.49 nM) | 0.8 (≈ 1.49 nM) | < 0.025 | < 0.025 | MIC (S. aureus smith): < 0.025 ng/mL; MIC (S. epidermidis 11-1230): < 0.025 ng/mL; MIC (S. marcescens IPM-15): 3.2 ng/mL (≈ 5.95 nM); MIC (S. marcescens IPM-16): 3.2 ng/mL (≈ 5.95 nM); MIC (X. maltophilia GN12873): 1.6 ng/mL (≈ 2.98 nM); MIC (X. maltophilia No. 661): 0.8 ng/mL (≈ 1.49 nM); MIC [1, 5]: < 3.1 ng/mL; MIC [2, 6]: 200 ng/mL (≈ 372 nM); MIC (C. neoformans IAM4514; Cryptococcus neoformans, IAM4514, 40 h, pH 7): 200 ng/mL (≈ 372 nM); IC50 [3]: 5.2 ng/mL (≈ 9.67 nM); IC50 [4]: 3.2 ng/mL (≈ 5.95 nM) |
| COC1=C(C=O)C(C)C23OC24c2cc(OC(C)=O)c5c(c2NC3C#CC=CC#CC14)C(=O)c1c(OC(C)=O)ccc(OC(C)=O)c1C5=O (centres unmarked) [Dynemicin C triacetate] | 800 | 400 | 400 | 6.3 | 6.3 | 200 | 3.1 | 50 | 400 | 200 | 400 | 6300 | 400 | 200 | 200 | 200 | 100 | 100 | 0.4 | 0.4 | MIC (S. aureus smith): 0.8 ng/mL; MIC (S. epidermidis 11-1230): 0.8 ng/mL; MIC (S. marcescens IPM-15): 800 ng/mL; MIC (S. marcescens IPM-16): 400 ng/mL; MIC (X. maltophilia GN12873): 800 ng/mL; MIC (X. maltophilia No. 661): 200 ng/mL; activity compared with ketoconazole ([1]; Candida albicans ATCC 38247, amphotericin resistant, in words): stronger than that of ketoconazole; MIC [1, 5]: 400 ng/mL; activity (compared with amphotericin B and ketoconazole) ([2]; Cryptococcus neoformans D49, in words): inactive; MIC [2, 6]: > 100000 ng/mL; activity (compared with amphotericin B and ketoconazole) (C. neoformans IAM4514; C. neoformans IAM4514, in words): inactive; IC50 [3]: 0.74 ng/mL; IC50 [4]: 2.8 ng/mL; activity against gram-positive organisms compared with amikacin (gram-positive organisms; comparison in words): much better activities against these organisms than amikacin; activity against gram-positive organisms (gram-positive organisms; in words): strong activity; MIC (gram-negative organisms): 50 to 800 ng/mL; solubility relative to dynemicin C (Solubility): increased solubility relative to dynemicin C |
| CC(=O)N1CCN(c2ccc(OCC3COC(Cn4ccnc4)(c4ccc(Cl)cc4Cl)O3)cc2)CC1 (centres unmarked) [Ketoconazole, reference compound] | – | – | – | – | – | – | – | – | – | – | – | – | – | – | – | – | – | – | – | – | MIC ([1]; ATCC38247, pH 7, Candida albicans ATCC 38247, amphotericin resistant strain, yeast morphology agar pH7.0, 28° C., 40 hours, read-out: MIC): 6300 ng/mL (≈ 11900 nM); MIC ([2]; Cryptococcus neoformans D49, yeast morphology agar pH7.0, 28° C., 40 hours, read-out: MIC): 100 ng/mL (≈ 188 nM); MIC (C. neoformans IAM4514; IAM4514, pH 7, Cryptococcus neoformans IAM 4514, yeast morphology agar pH7.0, 28° C., 40 hours, read-out: MIC): 100 ng/mL (≈ 188 nM) |
